Results as given in ChEMBL document CHEMBL2406968, “Heteroaryl sodium channel inhibitors” (ACS Med Chem Lett, 2013).

Columns and labels:
[1] = biological target: Sodium channel protein type 9 subunit alpha (Homo sapiens) (UniProt Q15858); experiment: Inhibition of Nav1.7 (unknown origin) expressed in HEK293 cells by automated patch clamp assay; type: cell-based
[2] = biological target: Sodium channel protein type 11 subunit alpha (Homo sapiens) (UniProt Q9UI33); experiment: Inhibition of Nav1.9 (unknown origin) expressed in HEK293 cells by automated patch clamp assay; type: cell-based
Sodium channel protein type 11 subunit alpha (Homo sapiens), sequence (Q9UI33 whole entry): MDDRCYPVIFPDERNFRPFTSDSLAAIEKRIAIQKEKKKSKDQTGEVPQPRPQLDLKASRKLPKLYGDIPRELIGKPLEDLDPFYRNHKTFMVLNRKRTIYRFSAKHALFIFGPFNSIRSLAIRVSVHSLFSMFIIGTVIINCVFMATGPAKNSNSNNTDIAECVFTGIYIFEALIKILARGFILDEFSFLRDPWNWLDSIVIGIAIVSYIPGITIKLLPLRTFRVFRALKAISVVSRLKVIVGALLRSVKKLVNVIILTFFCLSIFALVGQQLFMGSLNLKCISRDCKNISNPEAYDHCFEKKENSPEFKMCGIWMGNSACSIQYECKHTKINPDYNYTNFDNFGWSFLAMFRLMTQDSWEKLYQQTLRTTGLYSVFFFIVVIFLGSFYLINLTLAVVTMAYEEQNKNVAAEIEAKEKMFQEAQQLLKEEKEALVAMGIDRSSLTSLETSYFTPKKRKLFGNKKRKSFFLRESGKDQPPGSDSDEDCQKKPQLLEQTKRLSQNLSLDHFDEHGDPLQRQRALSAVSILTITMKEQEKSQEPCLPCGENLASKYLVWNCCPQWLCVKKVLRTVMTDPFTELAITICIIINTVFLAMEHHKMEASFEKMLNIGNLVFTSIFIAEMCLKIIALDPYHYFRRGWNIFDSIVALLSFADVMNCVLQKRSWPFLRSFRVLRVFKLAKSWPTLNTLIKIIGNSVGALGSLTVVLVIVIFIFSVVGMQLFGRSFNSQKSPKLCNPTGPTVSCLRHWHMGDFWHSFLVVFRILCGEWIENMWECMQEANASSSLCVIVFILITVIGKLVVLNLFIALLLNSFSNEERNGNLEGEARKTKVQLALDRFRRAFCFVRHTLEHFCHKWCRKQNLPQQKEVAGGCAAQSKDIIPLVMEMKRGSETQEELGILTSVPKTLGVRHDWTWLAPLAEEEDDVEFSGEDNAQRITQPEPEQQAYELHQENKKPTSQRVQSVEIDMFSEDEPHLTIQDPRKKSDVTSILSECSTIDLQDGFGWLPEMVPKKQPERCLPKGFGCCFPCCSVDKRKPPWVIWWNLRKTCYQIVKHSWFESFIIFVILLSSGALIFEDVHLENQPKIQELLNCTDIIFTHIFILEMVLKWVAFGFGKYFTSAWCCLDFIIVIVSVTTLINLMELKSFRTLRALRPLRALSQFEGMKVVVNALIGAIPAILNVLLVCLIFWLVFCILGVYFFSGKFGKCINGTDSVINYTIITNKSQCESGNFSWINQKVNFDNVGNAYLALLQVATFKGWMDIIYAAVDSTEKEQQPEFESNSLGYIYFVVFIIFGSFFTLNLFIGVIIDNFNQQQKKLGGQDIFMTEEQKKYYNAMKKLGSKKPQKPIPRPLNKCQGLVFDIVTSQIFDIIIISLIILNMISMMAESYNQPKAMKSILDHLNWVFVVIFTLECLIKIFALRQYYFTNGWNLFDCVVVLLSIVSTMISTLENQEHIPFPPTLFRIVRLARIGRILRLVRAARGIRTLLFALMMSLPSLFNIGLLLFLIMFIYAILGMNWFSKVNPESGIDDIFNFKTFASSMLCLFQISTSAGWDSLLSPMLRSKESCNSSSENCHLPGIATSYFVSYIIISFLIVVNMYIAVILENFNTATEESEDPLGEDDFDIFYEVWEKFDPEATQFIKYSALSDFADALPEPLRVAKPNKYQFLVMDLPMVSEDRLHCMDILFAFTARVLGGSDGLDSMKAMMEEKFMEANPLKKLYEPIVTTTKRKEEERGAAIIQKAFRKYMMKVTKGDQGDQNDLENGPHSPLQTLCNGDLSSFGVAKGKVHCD

Sodium channel protein type 9 subunit alpha (Homo sapiens), sequence (Q15858 whole entry, looked up): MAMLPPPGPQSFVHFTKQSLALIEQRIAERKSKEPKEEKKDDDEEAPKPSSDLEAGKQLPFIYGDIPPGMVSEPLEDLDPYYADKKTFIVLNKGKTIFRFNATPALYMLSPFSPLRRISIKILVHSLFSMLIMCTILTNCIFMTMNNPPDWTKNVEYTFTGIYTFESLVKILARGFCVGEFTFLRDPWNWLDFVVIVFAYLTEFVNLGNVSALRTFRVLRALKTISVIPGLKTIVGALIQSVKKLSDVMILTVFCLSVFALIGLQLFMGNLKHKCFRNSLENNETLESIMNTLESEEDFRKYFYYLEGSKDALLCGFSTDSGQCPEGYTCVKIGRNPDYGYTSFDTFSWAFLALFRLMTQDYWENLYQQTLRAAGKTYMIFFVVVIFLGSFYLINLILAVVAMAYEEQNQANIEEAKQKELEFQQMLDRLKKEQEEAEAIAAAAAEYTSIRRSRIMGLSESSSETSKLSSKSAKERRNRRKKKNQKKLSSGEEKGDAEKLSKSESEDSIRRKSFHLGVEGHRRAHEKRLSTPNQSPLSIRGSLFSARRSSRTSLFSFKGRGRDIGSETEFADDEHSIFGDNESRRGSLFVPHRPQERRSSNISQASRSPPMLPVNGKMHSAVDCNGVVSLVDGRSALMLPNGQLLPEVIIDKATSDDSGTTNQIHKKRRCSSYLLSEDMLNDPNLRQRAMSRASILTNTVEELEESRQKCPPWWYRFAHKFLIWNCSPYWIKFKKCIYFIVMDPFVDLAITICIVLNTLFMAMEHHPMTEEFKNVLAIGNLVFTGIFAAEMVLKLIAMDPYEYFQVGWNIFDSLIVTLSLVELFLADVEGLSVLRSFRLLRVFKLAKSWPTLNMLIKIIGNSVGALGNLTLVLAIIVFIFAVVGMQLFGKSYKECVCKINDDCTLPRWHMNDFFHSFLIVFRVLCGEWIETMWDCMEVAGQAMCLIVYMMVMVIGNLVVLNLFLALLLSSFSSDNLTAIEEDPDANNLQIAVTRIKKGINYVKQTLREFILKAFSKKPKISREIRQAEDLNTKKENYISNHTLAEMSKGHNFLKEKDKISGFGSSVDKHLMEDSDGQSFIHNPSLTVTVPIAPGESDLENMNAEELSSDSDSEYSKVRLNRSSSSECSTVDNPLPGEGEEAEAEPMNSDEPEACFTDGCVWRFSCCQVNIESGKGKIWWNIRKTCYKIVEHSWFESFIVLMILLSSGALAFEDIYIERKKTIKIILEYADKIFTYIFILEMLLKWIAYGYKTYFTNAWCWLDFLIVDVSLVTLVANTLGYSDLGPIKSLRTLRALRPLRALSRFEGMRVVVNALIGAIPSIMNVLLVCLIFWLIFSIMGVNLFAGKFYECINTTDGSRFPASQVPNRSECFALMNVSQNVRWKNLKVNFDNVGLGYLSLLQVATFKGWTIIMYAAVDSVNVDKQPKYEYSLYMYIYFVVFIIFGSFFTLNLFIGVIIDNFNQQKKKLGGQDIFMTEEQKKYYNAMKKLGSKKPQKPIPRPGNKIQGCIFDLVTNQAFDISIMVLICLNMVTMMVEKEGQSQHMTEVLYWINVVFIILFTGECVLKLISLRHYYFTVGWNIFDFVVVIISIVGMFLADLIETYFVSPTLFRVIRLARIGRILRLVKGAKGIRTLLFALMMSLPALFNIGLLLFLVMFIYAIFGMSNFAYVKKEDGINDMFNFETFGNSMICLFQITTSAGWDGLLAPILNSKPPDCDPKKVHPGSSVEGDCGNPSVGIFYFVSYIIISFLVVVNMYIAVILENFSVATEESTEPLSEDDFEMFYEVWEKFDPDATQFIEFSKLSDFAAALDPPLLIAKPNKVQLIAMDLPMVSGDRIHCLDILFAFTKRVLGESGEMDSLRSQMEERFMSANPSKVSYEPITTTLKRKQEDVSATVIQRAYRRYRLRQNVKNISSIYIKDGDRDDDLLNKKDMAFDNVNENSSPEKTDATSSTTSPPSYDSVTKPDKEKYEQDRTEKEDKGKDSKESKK

Row | SMILES | INH [1] [µM] | INH [2] [µM]
1 | CC(=O)n1cc(-c2ccc(C(F)(F)F)cc2-c2ccnn2C)c2ccc(S(=O)(=O)Nc3ncns3)cc21 | 0.0505 | > 10
2 | Cn1nccc1-c1cc(C(F)(F)F)ccc1-c1cn(C)c2cc(S(=O)(=O)Nc3ncns3)ccc12 | 0.147 | > 10
3 | Cn1cc(-c2cccc3ccccc23)c2ccc(S(=O)(=O)Nc3ncns3)cc21 | 0.306 | > 10
4 | Cn1cc(-c2cccc3c2CCNC3)c2ccc(S(=O)(=O)Nc3ncns3)cc21 | 0.292 | > 10
5 | Cn1cc(-c2ccc(C(F)(F)F)cc2C2=CCNCC2)c2ccc(S(=O)(=O)Nc3ncns3)cc21 | 0.0425 | > 10
6 | Cn1cc(-c2ccc(C(F)(F)F)cc2-c2ccn[nH]2)c2ccc(S(=O)(=O)Nc3ncns3)cc21 | 0.0375 | > 10
7 | Cn1cc(-c2ccc(C(F)(F)F)cc2-c2ccncc2)c2ccc(S(=O)(=O)Nc3ncns3)cc21 | 0.05 | > 10
8 | Cn1nccc1-c1cc(Cl)ccc1-c1cn(C)c2cc(S(=O)(=O)Nc3ncns3)ccc12 | 0.253 | > 10
9 | Cn1cc(-c2ccc(C(F)(F)F)cc2-c2ccnn2C2CNC2)c2ccc(S(=O)(=O)Nc3ncns3)cc21 | 0.263 | > 10
